Source: US20090186915A1, “Compositions and methods for treatment of glioblastoma, gliosarcoma, NSCLC, and head and neck cancer” (Unibioscreen S. A., priority 2006, published 2009)
Read-outs that look alike come from different tables or passages of the source.

Legend:
BxPC3 = experiment: MTT overall cell growth, BxPC3 cells; assay type: cell-based; settings: Homo sapiens
Method: (§1) Tests were performed in order to rapidly, i.e. within 5 days, measure the effect of the compound of example 2 on the overall cell growth. The test measures the number of metabolically active living cells that are able to transform the yellow product 3-(4,5-dimethylthiazol-2-yl)-2,5-diphenyl tetrazolium bromide (herein referred as MTT) into the blue product formazan dye by mitochondrial reduction. The amount of formazan obtained at the end of the experiment, measured by means of a spectrophotometer, is directly proportional to the number of living cells. Optical density determination thus enables a quantitative measurement of the effect of the investigated compounds as compared to the control condition (untreated cells) and/or to other reference compounds.
Six human cancer cell lines described in table 1 were used in the following MTT tests. These cell lines cover six histological cancer types, being prostate, glioma, pancreas, colon, lung and breast cancers. Cells were allowed to grow in 96 well micro-wells with a flat bottom with an amount of 100 μl of cell suspension per well with 1,000 to 4,000 cells/well depending on the cell type used. Each cell line was seeded in a well known MEM 10% serum culture medium. […]
(§2) After 72 hours of incubation at 37° C. with (experimental conditions) or without (control condition) the compound to be tested, the medium was replaced by 100 μl MTT dissolved in RPMI (1640 without phenol red) at a concentration of 1 mg/ml. […] The micro-wells were shaken for 5 minutes and read on a spectrophotometer at wavelengths of 570 nm (maximum formazan absorbance) and 630 nm (back-ground noise).
For each experimental condition, the mean optical density was calculated, as well as the percentage of remaining living cells in comparison with the control.
(§3) The overall growth of human cancer cell lines was determined by means of the calorimetric MTT (3-[4,5-dimethylthiazol-2-yl]-diphenyl tetrazolium bromide; Sigma) assay, as detailed previously.

[1] = test system: glioma Hs683 and U373 cells; experiment: Cell cycle kinetics by flow cytometry, glioma cells; assay type: cell-based, human
Method: The cell cycle kinetics of glioma Hs683 (ATCC code HTB-138) and U373 (ATCC code HTB-17) cells left untreated or incubated with UNBS5162 as indicated were determined by flow cytometry analysis of propidium iodide (PI) nuclear staining, using previously detailed methodology (Mijatovic et al. Neoplasia 2006, 2008). Each sample was evaluated in triplicate. Flow cytometry was undertaken using an Epics XL.MCL flow cytometer and the F ACScan/CellQuest software system (Becton Dickinson, Miami, Fla., USA).

E2F1 = E2F1 expression (Western blot, RT-PCR), PC-3; assay type: cell-based, human; settings: 10 μM
Method: Reverse transcription reactions were carried out in a thermal cycler (Thermocycler; Westburg, Leusden, The Netherlands). The purification of the cDNAs produced was undertaken using the High Pure PCR Product Purification Kit (Roche Diagnostics, Mannheim, Germany) in accordance with the manufacturer's instructions. Quantitative PCR reactions were performed with 50 ng of purified cDNA in a LightCycler thermocycler instrument (Roche Diagnostics) using LCFastart DNA Master SYBR Green 1 (Roche Diagnostics). After amplification, data analysis was carried out by means of the “Fit points” algorithm of the LightCycler quantification software. A standard curve enabled cDNA quantification of samples to be effected. […]
Cell extracts were prepared by the lysis of subconfluent PC-3 cells directly in boiling lysis buffer (10 mM Tris, pH 7.4, 1 mM Na3O4V, 1% SDS, pH 7.4). Approximately 40 μg of extracted proteins (evaluated by the bicinchoninic acid protein assay; Pierce, Perbio Science, Erembodegem, Belgium) was then loaded onto a denaturing polyacrylamide gel. The proteins submitted to Western blot analyses were detected using primary antibodies provided by: 1) CST Technologies, Bioké, Leiden, The Netherlands: Rb (1:2000) and p-Rb (1:1000); 2) BD Transduction Laboratories, Erembodegem, Belgium: E2F1 (1:400); and 3) AbCam, Cambridge, UK: tubulin (1:3000, used as a loading control). […]

HCT-15 = experiment: MTT colorimetric assay, HCT-15 cells; assay type: cell-based; settings: Homo sapiens, 72 h, 3 days of culturing, mean of six determinations, read-out: IC50 (μM) In Vitro Growth Inhibition
Method: as §3

[2] = test system: ets homologous factor (EHF); experiment: EHF mRNA by quantitative RT-PCR, DU-145; assay type: cell-based, human
Method: Reverse transcription reactions were carried out in a thermal cycler (Thermocycler; Westburg, Leusden, The Netherlands). The purification of the cDNAs produced was undertaken using the High Pure PCR Product Purification Kit (Roche Diagnostics, Mannheim, Germany) in accordance with the manufacturer's instructions. Quantitative PCR reactions were performed with 50 ng of purified cDNA in a LightCycler thermocycler instrument (Roche Diagnostics) using LCFastart DNA Master SYBR Green 1 (Roche Diagnostics). After amplification, data analysis was carried out by means of the “Fit points” algorithm of the LightCycler quantification software. A standard curve enabled cDNA quantification of samples to be effected. The primers used were provided by Invitrogen and selected using the HYBSIMULATOR software (Advanced Gene Computing Technology, Irvine, Calif.). The primers used were as follows: ets homologous factor (EHF): forward: 5′-[…]-3′; reverse: 5′-CGAACTCTTGGAAAGGGA-3′; E2F1: forward: 5′-[…]-3′; reverse: 5′-GGATGTGGTTCTTGGACTT-3′.

LoVo = experiment: MTT colorimetric assay, LoVo cells; assay type: cell-based; settings: Homo sapiens, 72 h, 3 days of culturing, mean of six determinations, read-out: IC50 (μM) In Vitro Growth Inhibition
Method: as §3

P-glycoprotein = experiment: P-gp ATPase activity (P-gp Drug interaction Assay Kit); assay type: biochemical
Method: In order to test drug interaction with P-glucoprotein (herein-after referred as P-gp) we used an assay based on the study of modulation of ATPase activity from enriched P-gp membrane vesicle preparation (the following kit has been used: P-gp Drug interaction Assay Kit commercially available from SPI BIO France). P-gp ATPase activity was measured by a spectrophotometric method based on monitoring of ADP formation in the vesicle suspension medium. The basal ATPase activity was defined as the activity determined in the absence of any added drug. […]

PC3 = experiment: MTT overall cell growth, PC3 cells; assay type: cell-based; settings: Homo sapiens, 72 h; PC-3; 3 days of culturing; mean of six determinations; read-out: IC50 (μM) In Vitro Growth Inhibition
Method: as §1, with “compounds. […]” for “compounds.”
as §2
For each experimental condition, the mean optical density was calculated, as well as the percentage of remaining living cells in comparison with the control. […]

Hs683 = experiment: MTT colorimetric assay, Hs683 cells; assay type: cell-based; settings: Homo sapiens, Hs 683, 72 h, 3 days of culturing, mean of six determinations, read-out: IC50 (μM) In Vitro Growth Inhibition
Method: as §3

SMILES: CN(C)CCN1C(=O)c2cccc3cc(NC(N)=O)cc(c23)C1=O [UNBS5162, N-{2-[2-(dimethylamino)ethyl]-1,3-dioxo-2,3-dihydro-1H-benzo[de]isoquinolin-5-yl}urea]
- IC50 (BxPC3; BXPC-3, 72 h, Bx-PC-3, 3 days of culturing, mean of six determinations, read-out: IC50 (μM) In Vitro Growth Inhibition): 9.1 µM
- IC50 (BxPC3; BXPC-3, BxPC3, 72 hours incubation, range of molar concentrations, read-out: IC50): 5 to 10 µM
- cell cycle kinetics, G2 block ([1]; Hs683 and U373, 10 μM for 72 h): markedly blocked both Hs683 and U373 cells in their G2 cell cycle phase
- cell cycle kinetics ([1]; glioma cells, 1 μM): did not significantly modify glioma cell cycle kinetics
- cell cycle kinetics ([1]; glioma cells, chronic 1 μM for five days): did not notably modify glioma cell cycle kinetics
- cell death on chronic treatment ([1]; glioma cells, chronic 10 μM for five days): induced the death of all assayed cells before the end of experiment
- E2F1 expression at protein and mRNA levels (E2F1): dramatic decrease in E2F1 expression
- IC50 (HCT-15): 28.8 µM
- EHF mRNA expression ([2]; 1 μM): markedly decreased EHF mRNA expression in a transient manner
- EHF mRNA levels ([2]; 10 μM, 72 hours after treatment): marked sustained decrease in EHF mRNA levels
- IC50 (LoVo): 8.9 µM
- modulation of Pgp ATPase activity (P-glycoprotein; 100 μM (data not shown)): do not affect Pgp ATPase activity
- modulation of basal P-gp ATPase activity (P-glycoprotein; 2, 10, and 50 μM): does not affect ATPase activity
- IC50 (PC3): 17.3 µM
- IC50 (Hs683): 8.5 µM
